Test results taken from US8834579B2, “Dye composition for hair dyeing and method for producing the same” (Hodogaya Chemical Co., Ltd., priority 2012, dated 2014).
Like-named read-outs stand apart in the source and are kept apart here.

What was measured:
[1] = strain not stated; SCCP Opinion on Basic Brown 16, 2008; cited from earlier work
[2] = system: Salmonella typhimurium TA98 strain; details: TA98 (TA1537 strain and/or TA98 strain); SCCP Opinion on Basic Brown 16, 2008; cited from earlier work
[3] = system: Salmonella typhimurium TA1537 strain; details: TA1537 (TA1537 strain and/or TA98 strain); SCCP Opinion on Basic Brown 16, 2008; cited from earlier work
[4] = system: Salmonella typhimurium TA98 strain; assay: Ames test (reverse mutation test), TA98 strain; format: cell-based
Source text: (§1) The Ames test is a test system for detecting a phenomenon that a histidine-requiring strain, which cannot grow without a specific amino acid (for example, histidine), is returned to a histidine-nonrequiring strain by a gene mutation due to a mutational substance. The Ames test is also called a reverse mutation test because a strain regains its original nature by a gene mutation. In the case of a metabolic activation test, a test substance, a test strain, and an enzyme for activating metabolism of drugs (S-9Mix) are mixed, and the mixture is cultured for 48 hours at 37° C. using an agar medium after preincubation for 20 minutes at 37° C. The number of induced revertant colonies is counted, and it is determined to be positive in the case where the ratio (MR value) of the number of the induced revertant colonies to the number of revertant colonies appearing in a negative control is 2 or more (refer to, for example, “Bacterial Reverse Mutation Test.” OECD GUIDELINE FOR TESTING OF CHEMICALS, no. 471, Adopted: 21, Jul. 1997).
(§2) The metabolic activation test is a test carried out by adding an enzyme for activating metabolism of drugs (that is, S-9Mix) which is obtained from a liver of a rat or the like in order to bring a metabolic system of drugs for microbes close to that of mammals.
(§3) With respect to Basic Brown 16 before and after purification, the Ames test was carried out using Salmonella typhimurium TA98 strain and Salmonella typhimurium TA1537 strain with and without an enzyme for activating metabolism of drugs (S-9Mix) in each strain.
(§4) The Ames test was carried out on the same condition also with respect to the component indicating positive in the Ames test and represented by the structural formula (III) among impurities contained in Basic Brown 16.

[5] = system: Salmonella typhimurium TA1537 strain; assay: Ames test (reverse mutation test), TA1537 strain; format: cell-based
Source text: as §1, §2, §3, §4

SMILES	Ames test result [1]	Ames test result [2]	Ames test result [3]	Ames test result ([4]; TA98)	MR value (ratio of induced revertant colonies to negative control) ([4]; TA98, +S9 (with S-9Mix))	MR value (ratio of induced revertant colonies to negative control) ([4]; TA98, −S9 (without S-9Mix))	Ames test result ([5]; TA1537)	MR value (ratio of induced revertant colonies to negative control) ([5]; TA1537, +S9 (with S-9Mix))	MR value (ratio of induced revertant colonies to negative control) ([5]; TA1537, −S9 (without S-9Mix))
C[N+](C)(C)c1ccc2ccc(O)c(N=Nc3ccc(N)cc3)c2c1.[Cl-] [Basic Brown 16]	positive	positive	positive						
CN(C)c1ccc2ccc(O)c(N=Nc3ccc(N)cc3)c2c1 [Component of structural formula (III)]				positive (it is determined to be positive in the case where the ratio (MR value) of the number of the induced revertant colonies to the number of revertant colonies appearing in a negative control is 2 or more)	53.0	0.9	positive (it is determined to be positive in the case where the ratio (MR value) of the number of the induced revertant colonies to the number of revertant colonies appearing in a negative control is 2 or more)	10.5	1.2
